# Measured values published in PubChem BioAssay (NCI).
#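 All cell lines were grown in 96-well plates and treated with compound for 48 hours. The concentration for full growth arrest is given as TGI.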 *1 amine or outer side, *2 acyl side, *3 side chain or, on linkers, in order; H or OH if unused. Where a SMILES comes first, the peptide text is derived from it. Bridges are numbered along the chain shown (N, C = ends). Roman numbers before positions name the chains, in order. [ ]: non-standard residue; d: D form. Actinocin(9to1) = Cc1c2oc3c(C)ccc(C(=O)[*:1])c3nc-2c(C(=O)[*:2])c(N)c1=O; Hyp = O=C(O)[CH]1C[CH](O)CN1; NMeV = CN[CH](C(=O)O)C(C)C; Sar = CNCC(=O)O
# Legend:
# Test in all cases: NCI anticancer screen, dose series, 48 h
# [1] = tested on: MDA-MB-231 breast
# [2] = tested on: T-47D breast
# [3] = tested on: HS 578T breast
# [4] = tested on: RXF 393 renal
# [5] = tested on: M14 melanoma
# [6] = tested on: SR leukemia
# [7] = tested on: ACHN renal
# [8] = tested on: SF-539 CNS
# [9] = tested on: UACC-62 melanoma
# [10] = tested on: MCF7 breast
# [11] = tested on: SW-620 colon
# [12] = tested on: HL-60(TB) leukemia
# [13] = tested on: SNB-75 CNS
Compound,TGI [1] [µM],TGI [2] [µM],TGI [3] [µM],TGI [4] [µM],TGI [5] [µM],TGI [6] [µM],TGI [7] [µM],TGI [8] [µM],TGI [9] [µM],TGI [10] [µM],TGI [11] [µM],TGI [12] [µM],TGI [13] [µM]
CCOC(=O)[C@@]1(C)CC(O)C(=O)N1C (some centres undefined),> 100,> 100,> 100,> 100,> 100,> 100,> 100,> 100,> 100,> 100,> 100,> 100,–
"Cc1c2oc3c(C)ccc(C(=O)NC4C(=O)NC(C(C)C)C(=O)N5CC(O)CC5C(=O)N(C)CC(=O)N(C)C(C(C)C)C(=O)OC4C)c3nc-2c(C(=O)NC2C(=O)NC(C(C)C)C(=O)N3CC(O)CC3C(=O)N(C)CC(=O)N(C)C(C(C)C)C(=O)OC2C)c(N)c1=O (centres undefined) (I: TV[Hyp][Sar][NMeV] / II: TV[Hyp][Sar][NMeV]; ester I:1-I:C, II:1-II:C; linker I:N-II:N via Actinocin(9to1); configuration not given here)",> 1,> 1,> 1,> 1,> 1,> 1,> 1,> 1,–,> 1,> 1,> 1,> 1
O=C1CSC(c2ccc([N+](=O)[O-])cc2)N1c1ccc(-c2ccc(-n3c(-c4ccccc4)nc4ccccc4c3=O)cc2)cc1 (centres undefined),> 100,> 100,> 100,–,> 100,87,> 100,> 100,> 100,> 100,> 100,> 100,–
c1ccc(Nc2nn3c(CCCCCCCCc4nnc5sc(Nc6ccccc6)nn45)nnc3s2)cc1,> 100,67.1,> 100,> 100,35.2,38.3,> 100,> 100,> 100,85.7,> 100,–,75.5
COC(=O)c1c2c(cc3c1CC1(Cc4cc5c(c(C(C)=O)c4C1)CCCC5)C3)CCCC2 (centres undefined),> 100,> 100,> 100,> 100,> 100,21,> 100,> 100,> 100,> 100,–,46.3,–
COC(=O)C1CCC(=O)N1C(c1cc(OC)c(OC)c(OC)c1)c1cccc2ccccc12 (centres undefined),> 100,> 100,> 100,–,> 100,> 100,> 100,> 100,> 100,> 100,> 100,> 100,> 100
N/C(=N\Nc1ccc(Cl)cc1)c1cnccn1,> 100,> 100,> 100,> 100,> 100,> 100,> 100,–,> 100,> 100,> 100,> 100,> 100
Cc1ccc(NC(=O)/C(Cc2cc(=O)oc3cc(O)ccc23)=N\NC(C)(C)C)cc1C,> 100,> 100,> 100,> 100,> 100,> 100,> 100,> 100,> 100,> 100,> 100,> 100,–
Cc1nc2ccc(F)cc2c(Cl)c1CCCl,73.8,> 100,> 100,79.9,–,44.9,> 100,> 100,94.6,90.1,> 100,35,> 100
C=CCOC(OCC=C)/C(Br)=C/C,> 100,72.6,72.2,> 100,> 100,> 100,45.3,–,> 100,> 100,> 100,> 100,> 100
C#C[C@@]1(O)CCCC2=CC3(CC[C@]21C)SCCS3,> 100,> 100,> 100,> 100,> 100,> 100,> 100,> 100,> 100,> 100,> 100,> 100,–
CCC(CC)(CO)CNc1cc(Cl)nc(N)n1,> 100,> 100,> 100,> 100,–,> 100,> 100,> 100,> 100,> 100,> 100,> 100,> 100
O=c1[nH]nc(Cc2ccccc2)n1/N=C/c1cccnc1,> 100,> 100,> 100,> 100,> 100,> 100,> 100,> 100,–,> 100,> 100,> 100,> 100
